The values below come from ChEMBL document CHEMBL6087483 (J Med Chem, 2025).

Where only a bound is given, the exact number is not on record here.

The test system of data set [1] is HCT-116. Briefly: Antiproliferative activity against MTAP deleted human HCT-116 cells assessed as inhibition of cell viability by luminescence based cell titer-glo assay. It counts as functional. For orientation: ATP-based viability assays read luminescence as a measure of living cells.
Data set [2] deals with HCT-116. Briefly: Antiproliferative activity against MTAP wild type human HCT-116 cells assessed as inhibition of cell viability by luminescence based cell titer-glo assay. It counts as functional.
The nature of data set [3]: Selectivity ratio of IC50 for antiproliferative activity against MTAP wild type human HCT-116 cells to IC50 for antiproliferative activity against MTAP deleted human HCT-116 cells. It counts as functional.
Data set [4] can be described thus: Volume of distribution at steady state in male CD-1 mouse at 5 mg/kg, po or 1 mg/kg, iv measured upto 24 hrs. It counts as ADME, organism-based. Particulars: in vivo.
Data set [5] can be described thus: Cmax in male CD-1 mouse at 5 mg/kg, po or 1 mg/kg, iv measured upto 24 hrs. It counts as ADME, organism-based. Particulars: in vivo.
A short description of data set [6]: AUC (0 to 24 hrs) in male CD-1 mouse at 5 mg/kg, po or 1 mg/kg, iv measured upto 24 hrs. It counts as ADME, organism-based. Particulars: in vivo.
The nature of data set [7]: Oral bioavailability in male CD-1 mouse at 5 mg/kg or 1 mg/kg, iv measured upto 24 hrs. Particulars: in vivo. It counts as ADME, organism-based.
The nature of data set [8]: Volume of distribution at steady state in male Sprague-Dawley rat at 5 mg/kg, po or 1 mg/kg, iv measured upto 24 hrs. It counts as ADME, organism-based. Particulars: in vivo.
The nature of data set [9]: Cmax in male Sprague-Dawley rat at 5 mg/kg, po or 1 mg/kg, iv measured upto 24 hrs. It counts as ADME, organism-based. Particulars: in vivo.
A short description of data set [10]: AUC (0 to 24 hrs) in male Sprague-Dawley rat at 5 mg/kg, po or 1 mg/kg, iv measured upto 24 hrs. To be noted: in vivo. It counts as ADME, organism-based.
Data set [11] is described as follows: Oral bioavailability in male Sprague-Dawley rat at 5 mg/kg or 1 mg/kg, iv measured upto 24 hrs. It counts as ADME, organism-based. To be noted: in vivo.

One may read the IC50 as the point on the concentration scale where inhibition reaches its midpoint. Consider `CN(C(=O)c1ccc2nc(N)c3c(c2c1)COC3)[C@@H]1CCN(c2cccc(C#N)c2)C1`, for which the IC50 in the data set with HCT-116 [1] amounted to 317 nM; in the data set on HCT-116 [2], 6620 nM.

In the case of `CN(C(=O)c1ccc2nc(N)c3c(c2c1)COC3)[C@@H]1CCCN(c2ccccc2)C1`, in the data set with HCT-116 [1], the half-inhibitory concentration (IC50) is over 10000 nM.

Take `Nc1nc2ccc(C(=O)N3C[C@@H]4C[C@H]3CN4c3ccccc3)cc2c2c1COC2`: the half-inhibitory concentration (IC50) with HCT-116 [1] is 719 nM.

As to `CN(C(=O)c1ccc2nc(N)c3c(c2c1)COC3)[C@H]1CCCN(c2ccccc2)C1`, the half-maximal inhibitory concentration (IC50) in the data set on HCT-116 [1] was 6060 nM.

As to `Cc1cc2cc(C(=O)N(Cc3ccc(C(F)(F)F)cn3)C(C)c3ncccn3)ccc2nc1N` (stereo not given), in [3], the “Ratio IC50” value amounted to 31.

Turning to `CN(C(=O)c1ccc2nc(N)c3c(c2c1)COC3)[C@@H]1CCN(c2ccc(C3CC3)cc2)C1`, the 50% inhibitory concentration (IC50) in the data set with HCT-116 [1] came out at 1570 nM.

For the molecule `CN(C(=O)c1ccc2nc(N)c3c(c2c1)COC3)[C@@H]1CCN(c2ccc(C3=CCOCC3)cc2)C1`, the 50% inhibitory concentration (IC50) in the data set with HCT-116 [1] is 451 nM; in the data set with HCT-116 [2] it was over 10000 nM.

In the case of `CN(C(=O)c1ccc2nc(N)c3c(c2c1)COC3)[C@@H]1CCN(c2ccc(C(F)(F)F)cc2)C1`, the 50% inhibitory concentration (IC50) in the data set with HCT-116 [1] was 1090 nM; in the data set with HCT-116 [2], over 10000 nM.

`Cc1cc(NC(=O)C(=O)N2C[C@@H](C)CC[C@@H]2c2ccc3scnc3c2)cnc1N`: in data set [3], the “Ratio IC50” value is reported as 13.

Turning to `Cn1ncc(-c2ccc3c(=O)[nH]nc(CN)c3c2)c1-c1c(F)c(Cl)cc(OC2CC2)c1C#N`, in data set [3], the “Ratio IC50” value amounted to 73.

As to `CN(C(=O)c1ccc2nc(N)c3c(c2c1)COC3)C1CN(c2ccccc2)C1`, the IC50 with HCT-116 [1] stood at 1590 nM.

For orientation: Cmax means the maximum level reached in the sampled fluid or tissue. One may read the AUC as concentration integrated over time. Lower therefore signals less exposure. By bioavailability is commonly meant dose-corrected exposure relative to a reference, in per cent. Read a low bioavailability as poor availability. For `Cc1cc2nc(N)c3c(c2cc1C(=O)N(C)[C@@H]1CCN(c2ccc(C#N)cc2)C1)COC3`, the IC50 was 7 nM in the data set with HCT-116 [1] and 1180 nM in the data set with HCT-116 [2]. Moreover, the “Ratio IC50” value in data set [3] was 169. Further, the Vdss was determined as 2.84 L/kg in [4] and 1.29 L/kg in data set [8]. In addition, the highest concentration (Cmax) was 611 ng/mL in data set [5] and 496 ng/mL in [9]. Besides, the exposure (AUC) in data set [6] was 1720 ng·h/mL; in data set [10] it was 2310 ng·h/mL. Besides, the bioavailability worked out at 83.1% in data set [7] and 46.1% in [11].
